Reference: patent publication US10143666B2, “Small molecule inhibitors targeting CAG-repeat RNA toxicity in polyglutamine diseases” (The Chinese University of Hong Kong, priority 2015, dated 2018)

Test system: EGFPCAG78 RNA expressing SK-N-MC cells
Assay: LDH cytotoxicity assay, EGFPCAG78 RNA expressing SK-N-MC cells
Assay type: cell-based, human
Details: 72 hours post-transfection and treatment
Protocol: It was next investigated whether DB213 could mitigate expanded CAG-repeat RNA-mediated toxicity in SK-N-MC human neuronal cell. […] Taken together, DB213 could suppress the expanded CAG RNA-mediated but not polyQ protein-mediate toxicity in human neuronal cell.
SK-N-MC human neuronal cells were seeded on a 24-well plate and lactate dehydrogenase enzyme activity in the cell culture medium was measured 72 hours post-transfection and drugs treatment using the Cytotox 96 non-radioactive cytotoxicity assay (Promega).

CN(C)CCNC(=N)c1ccc(C(=N)NCCN(C)C)cc1.Cl.Cl.Cl.Cl [DB213_D1]
Cell death induced by EGFPCAG78 RNA (LDH assay): did not rescue the cell death
